Measured values reported in US12129488B2, “Production of brown adipocytes” (SOCIETE DES PRODUITS NESTLE S.A., priority 2018, dated 2024).

What was measured:
[1] = tested on: human brown adipocytes (hiPSC derived BA cells); test: PET-SCAN imaging of labelled glucose in explanted devices from mice implanted with encapsulated human brown adipocytes; type: in vivo; conditions: mice implanted with brown adipocytes and injected with FSK vs not stimulated; three weeks post-implantation
Method: Two groups of mice were implanted with human brown adipocytes (hiPSC derived BA cells) produced by the methods of the present invention and encapsulated in a device subcutaneously. In one group, the mice were injected with forskolin (FSK) to stimulate the brown adipocytes. In the other group, the mice implanted with brown adipocytes were not stimulated by FSK. A control group of mice was implanted with an empty device. All groups were assessed after three weeks post-implantation for in vivo PET-SCAN imaging as well as ex vivo PET-SCAN imaging of the explanted device.

[2] = tested on: human BA cells (hiPSC derived brown adipocytes); test: Calorimetric/respiration measurements in mice implanted with human BA cells after NE stimulation; type: in vivo; conditions: implanted with human BA cells vs empty devices, one week post-implantation
Method: Measures of respiration quotient (DeltaVO2) of mice implanted with human BA cells (IBAT) or empty devices (EMPTY) treated with Norepinephrine (NE) for 1 hour. The mice are either surgically depleted for endogenous murine BA tissue (BATr) or treated at thermo-neutrality to inactivate the endogenous murine BA tissue (Therm). Calorimetric analyses were performed on group of mice implanted with encapsulated human brown adipocytes or empty devices. One group of mice was depleted of endogenous murine BA tissue by surgery and another group was maintained at thermoneutrality for inactivation of the endogenous murine BA tissue. The two groups were implanted with either human BA cells (hiPSC derived brown adipocytes) or empty devices. After one week post-implantation, each group of mice was stimulated with Norepinephrine (NE) (BA stimulation) to assess uncoupled respiration increase. The four sub-groups were analysed for calorimetry measurements as a readout of the respiration index induced by human brown adipocytes.

[3] = tested on: UCP1; test: UCP1 expression analysis (qPCR), long term versus short term SB431542 exposure during BA differentiation; type: cell-based, human; conditions: continued use of SB431542 instead of removal in BAD2 medium
Method: UCP1 expression analysis between long term (+SB) or short term (−SB) SB431542 exposure. Long term SB exposure includes SB431542 in the medium during the entire BA differentiation beginning immediately after plating dissociated paraxial mesoderm cells. Short term SB exposure includes SB431542 in the medium during only the first 8 days beginning immediately after plating dissociated paraxial mesoderm cells. Those samples marked “+FSK” received 10 μM Forskolin for 4 hours. Day numbers are the number of days after paraxial mesoderm differentiation. All samples are relative to iPSC using 18S rRNA as the endogenous control.
(§1) Brown adipocyte (BA) differentiation was accomplished using two sequential media formulations designated BAD1 and BAD2. BAs were derived by first dissociating the PM spheres into single-cell suspension. Briefly, PM spheres were removed from the suspension plates and allowed to gravity sediment in a conical tube. The medium was aspirated carefully and the spheres gently washed once with excess DPBS without calcium or magnesium. The spheres were allowed to settle and the DPBS aspirated. The spheres were resuspended in 5 mL of RT Accumax® (Innovative Cell Technologies, San Diego, CA) and placed on a single speed rotating mixer for 20-30 minutes until a single-cell suspension was achieved. […]

[4] = tested on: paraxial mesoderm cells; test: Brown adipocyte differentiation of dissociated paraxial mesoderm cells in BAD1/BAD2 medium; type: cell-based, human; conditions: SB431542 included in BAD1 medium, 2D culture of dissociated paraxial mesoderm cells
Method: Proceeding from monolayer of pluripotent stem cells (PSC) to spherical culture (Sph) to primitive streak (PS) to paraxial mesoderm (PM). Cells are then dissociated and cultured in 2D in specific BAD1 medium that contains TGFβ signalling inhibitor, SB431542 which is an activin inhibitor. […] In a second step, cells are cultured in BAD2 medium allowing TGFβ signalling to be active as SB431542 is removed.
as §1, with “achieved. The cells were subsequently filtered through a 100 μm filter (ThermoFisher, Waltham, MA) into a 50 mL conical tube, washed with DPBS and centrifuged at 200 g for 4 minutes at RT; the resulting supernatant was aspirated and the cells resuspended in BAD1 medium for counting using a haemocytometer.” for “achieved.”

`C=C[C@@]1(C)CC(=O)[C@]2(O)[C@@]3(C)[C@@H](O)CCC(C)(C)[C@@H]3[C@H](O)[C@H](OC(C)=O)[C@@]2(C)O1` [FSK, forskolin] was tested, and the “signal of labelled glucose, PET-SCAN imaging ex vivo” value [1] was “increased signal of labelled glucose”.

`NC[C@H](O)c1ccc(O)c(O)c1` [NE, Norepinephrine] was tested, and the “respiration index (calorimetry)” value ([2]; mice at thermoneutrality) was “slightly but not significantly improved” and the “respiration index (calorimetry)” value ([2]; mice surgically depleted of endogenous murine BA tissue) was “significant increased respiration index”.

For `NC(=O)c1ccc(-c2nc(-c3ccc4c(c3)OCO4)c(-c3ccccn3)[nH]2)cc1` [SB431542], the “kinetics of differentiation and UCP1 induction and expression” value [3] was “retards proper kinetics and perturbs proper UCP1 induction and expression” and the “appearance of vascular endothelium and cardiac myocyte development from contaminating lateral plate mesoderm” value [4] was “reduces appearance of vascular endothelium and cardiac myocyte development”.
